8 compounds from PubChem BioAssay (NCI) can be followed below.

The structures appear in SMILES notation.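 1) Cells in 96-well plates. 2) Compound, 48 h, 5 concentrations. 3) Linear interpolation between surrounding doses. 4) Unreached endpoint = highest concentration. Definition used: TGI = concentration required for complete inhibition of growth.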

What all share (test): inhibition of tumour cell growth, NCI panel, 48 h
In assay [1] the test system is RPMI-8226 leukemia.
The subject of assay [2] is HCC-2998 colon.
In assay [3] the test system is MOLT-4 leukemia.
The test system of assay [4] is HT29 colon.
Assay [5] relates to HL-60(TB) leukemia.
The test system of assay [6] is COLO 205 colon.
The subject of assay [7] is OVCAR-8 ovarian.
Assay [8] relates to SF-268 CNS.
For assay [9], the system named is CAKI-1 renal.
Assay [10] concerns U251 CNS.
Assay [11] has as its system TK-10 renal.
Assay [12] has as its system SW-620 colon.
For assay [13], the system named is K-562 leukemia.
The test system of assay [14] is HS 578T breast.
For assay [15], the system named is EKVX NSCLC.
The test system of assay [16] is LOX IMVI melanoma.
Assay [17] relates to SF-539 CNS.
In assay [18] the test system is MDA-MB-435.
Assay [19] has as its system SR leukemia.
Assay [20] relates to NCI/ADR-RES ovarian.

Regarding `C/C=C/C(C#N)(/C=C/c1ccccc1)OP1(=O)OC(c2ccccc2)C(C)N1C` (stereo not given), the TGI came to 40 µM in assay [1]; 27.5 µM in [2]; 28.8 µM in [3]; 44.7 µM in [4]; 32.9 µM in assay [5]; 32.1 µM in assay [6]. In addition, the TGI in [7] was 35.5 µM; in [8] it was 42.1 µM; in assay [9], 54.8 µM; in assay [10], 32.8 µM; in [11], 37.8 µM; in assay [12], 39.2 µM. Also, the TGI stood at 39.3 µM in assay [13]; 49.9 µM in assay [14]; 44.5 µM in assay [15]; 35 µM in assay [16]; 35.1 µM in [17]; 34.9 µM in [18].

As to `Cc1nnc2n1N=C(c1ccccc1)/C(=C/c1ccc(-c3ccc(Cl)cc3)o1)S2`, the TGI came to 26.8 µM in assay [1]; 19.9 µM in assay [2]; 23 µM in assay [3]; 44.7 µM in assay [4]; 28.4 µM in [5]; 41.5 µM in [6]. Moreover, the TGI in [8] amounted to 33.2 µM; in assay [9] it was 29.4 µM; in [10] it was 24.4 µM; in assay [11] it was 26.4 µM; in assay [12], 47.7 µM; in [19], 42.1 µM. Also, the TGI in assay [13] was 47.4 µM; in [14] it was more than 100 µM; in [15], 53.3 µM; in assay [18] it was 22.3 µM.

As to `S=c1nc2sc3c(c2c(Nc2ccc(Cl)cc2)[nH]1)CCCC3`, the TGI in [1] was 72.4 µM; in assay [2] it was more than 100 µM; in assay [3], more than 100 µM; in assay [4], more than 100 µM; in assay [5] it was more than 100 µM; in [6], more than 100 µM. In addition, the TGI in assay [8], in assay [9], in [10], in assay [11], in assay [12] and in assay [19] was more than 100 µM each time. For the same compound, the TGI in assay [13], in [14], in assay [15], in assay [16] and in assay [18] was more than 100 µM in each case.

For `CC1=CC(=O)[C@@H](O)[C@]2(C)[C@H]3[C@@]4(O)OC[C@]35[C@H]([C@@H](C)[C@H]4O)[C@@H](OC(=O)C(C)(C)CO)C(=O)O[C@@H]5C[C@@H]12`, the TGI in assay [1] is 0.0968 µM; in assay [2], 1 µM; in [4], 10.4 µM; in assay [5] it was more than 100 µM; in assay [6], 7 µM; in [7], 2.52 µM. Further, the TGI is 0.236 µM in assay [8]; 9.88 µM in [9]; more than 27.6 µM in assay [12]; more than 100 µM in assay [13]; 51.3 µM in [20]; 0.897 µM in assay [14]. Moreover, the TGI was 15.1 µM in assay [15], 0.0741 µM in assay [16], less than 0.0261 µM in assay [17] and 1.65 µM in assay [18].

As for `O=C1NC(N/N=C/C(O)C(O)C(O)C(O)CO)=N/C1=C\c1ccco1` (stereo not given), the TGI in assay [1], in assay [3], in [4], in assay [5], in assay [6] and in assay [7] was more than 100 µM throughout. Also, the TGI in assay [8], in assay [9], in [10], in assay [11], in assay [12] and in assay [13] was more than 100 µM each time. For the same compound, the TGI in [20], in assay [14], in assay [15], in assay [16], in assay [17] and in [18] was more than 100 µM in each case.

On to `O=C1NC(N/N=C/c2ccccc2)=N/C1=C\c1ccco1`, for which the TGI in [1], in [2], in assay [3], in assay [4], in assay [5] and in assay [6] was more than 100 µM throughout. Besides, the TGI in assay [7] was 34.9 µM; in [8], 75.6 µM; in [9] it was more than 100 µM; in [10] it was 68.4 µM; in assay [11], 92.3 µM; in assay [12], more than 100 µM. Moreover, the TGI in [20] is more than 100 µM; in assay [14], 78.3 µM; in [15], more than 100 µM; in [18] it was more than 100 µM.

With `Cc1ccc(S(=O)(=O)NC(=O)NC(CC(N)=O)C(=O)O)cc1` (stereo not given), the TGI in [1], in assay [3], in assay [4], in assay [5], in [6] and in assay [7] was more than 100 µM throughout. For the same compound, the TGI in assay [8], in assay [10], in [11], in assay [12], in [19] and in [13] was more than 100 µM each time. Also, the TGI in assay [20], in assay [14], in assay [16] and in assay [17] was more than 100 µM in each case.

`CC1OC(OC2C(O[C@H]3CC[C@@H]4C(=CC[C@@H]5[C@@]4(C)C(=O)C[C@]4(C)[C@@H]([C@H](C)CC[C@@H](O)C(C)(C)O)CC[C@@]54C)C3(C)C)OC(CO)C(O)C2O)C(O)C(O)C1O` (stereo not given in full): the TGI in assay [2], in assay [3], in [4], in assay [5], in [6] and in assay [7] was more than 100 µM in each case. For the same compound, the TGI in assay [8], in assay [9], in [10], in [11], in assay [12] and in assay [13] was more than 100 µM in each case. Further, the TGI in assay [20], in assay [14], in [15], in assay [16], in [17] and in assay [18] was more than 100 µM throughout.
